Reference: patent US6472413B2, “Heteroarylacryloylaminoalkyl-substituted benzenesulfonamide derivatives, their preparation, their use and pharmaceutical preparations comprising them” (Adventis Pharma Deutschland GmbH, priority 2000, dated 2002)

What was measured:
[1] = system: papillary muscle of the guinea pig; assay: Action potential duration on the papillary muscle of the guinea pig (relengthening of hypoxia-shortened APD90); format: cell-based; conditions: concentration 2 μM, 60 min after addition, percentage in relation to the shortening caused by hypoxia
Source text: Action Potential Duration on the Papillary Muscle of the Guinea Pig
ATP deficiency states, observed during ischemia in the cardiac muscle cell, lead to a shortening of the action potential duration (ATP=adenosine triphosphate). They are regarded as one of the causes of so-called reentry arrhythmias, which can cause sudden cardiac death. The opening of ATP-sensitive potassium channels by the lowering of the ATP level is regarded as the cause of this. For the measurement of the action potential on the papillary muscle of the guinea pig a standard microelectrode technique was employed.
Guinea pigs of both sexes were killed by a blow to the head, the hearts were removed, and the papillary muscles were separated out and suspended in an organ bath. The organ bath was rinsed with Ringer's solution (136 mmol/l of NaCl, 3.3 mmol/l of KCl, 2.5 mmol/l of CaCl2, 1.2 mmol/l of KH2PO4, 1.1 mmol/l of MgSO4, 5.0 mmol/l of glucose, 10.0 mmol/l of 1-(2-hydroxyethyl)piperazine-4-(2-ethanesulfonic acid) (HEPES), pH adjusted to 7.4 with NaOH) and aerated with 100% oxygen at a temperature of 37° C. The muscle was stimulated with square-wave pulses of 1 V and 1 ms duration and a frequency of 1 Hz by means of an electrode. The action potential was derived and recorded by means of a glass microelectrode inserted intracellularly, which was filled with 3 mol/l of KCl solution. The compound to be tested was added to the Ringer's solution in a concentration of 2 μmol/l. The action potential was amplified using an amplifier from Hugo Sachs (March-Hugstetten, Germany) and stored and analyzed by means of a computer. The duration of the action potential was determined at a degree of repolarization of 90% (APD90). After an equilibration time of 30 min, the action potential shortening was produced by rinsing the papillary muscle with a hypoxic NaCl solution. The glucose was removed here, the HEPES buffer replaced by PIPES buffer (piperazine-1,4-bis(2-ethanesulfonic acid)), the pH was adjusted to 6.5, and the aeration was carried out using 100% nitrogen. After a time of 60 min, this led to a marked shortening of the APD90. After this time, the test compound was added and the relengthening of the action potential recorded after a further 60 min. The compound-caused relengthening of the APD90 was calculated as a percentage, in relation to the shortening caused by hypoxia. The test compounds were added to the bath solution as stock solution in propanediol.
The following relengthenings of the APD90 values were observed.

[2] = target: hSUR1/hKir6.2 (Homo sapiens, UniProt Q09428+Q14654); assay: Action on hSUR1/hKir6.2-transfected CHO cells (hypoglycemic action), membrane potential by DIBAC4 fluorescence (FLIPR); format: cell-based; conditions: concentration 10 μM; CHO cells activated with diaxozide; mean of at least 4 experiments
Source text: Action on hSUR1/hKir6.2-transfected CHO Cells (Hypoglycemic Action)
The target organ of these compounds is the β cell of the pancreas where they block ATP-sensitive potassium channels and produce a release of the hypoglycemic hormone insulin by influencing the electrical potential of the cell membrane.
The extent of this depolarization of the cell membrane, which is caused by the compounds according to the invention, was investigated on CHO cells that were transfected with the cloned components of human pancreatic ATP-sensitive potassium channels, hSUR1, and hKir6.2, and activated by pretreatment with diaxozide, an opener of ATP-sensitive potassium channels. The potency of a compound with respect to the membrane potential of these transfected and activated CHO cells is a measure of the hypoglycemic potential of this compound.
On the day of measurement, the microtiter plates were washed three times with PBS (physiological buffer solution). In the last washing step, 90 μl remained in each well. The cells were then loaded with the fluorescent dye DIBAC4 (Molecular Probes, Portland, Oreg., USA) by addition of 90 μl of a 10-micromolar solution of DIBAC4 in PBS and of 90 μl of a 400 micromolar solution of diaxozide in PBS to each well. After an incubation time of 30 min at 37° C., the microtiter plates were then transferred to a fluorescent microtiter plate reader (FLIPR; Molecular Devices, Sunnyvale, Calif., USA). The cells were stimulated by means of an argon laser (Innova 90; Coherent, Santa Clara, Calif., USA) at a wavelength of 488 nm and the fluorescence emission was measured by means of a CCD camera. The measurement of the membrane potential began after 4 min by addition of 20 μl of a solution of the test compound or of the control solution to each well, the resulting fluorescence emission being measured every 20 seconds for a period of 20 min. The data shown are mean values of at least 4 experiments.

[3] = system: chloroform-induced ventricular fibrillation in the mouse; assay: Chloroform-induced ventricular fibrillation in the mouse (action in the case of vagal dysfunction); format: in vivo; conditions: 3 mg/kg i.p., 30 min before chloroform anesthesia, percentage of mice with ventricular fibrillation, untreated control 100%
Source text: Chloroform-induced Ventricular Fibrillation in the Mouse (Action in the Case of Vagal Dysfunction)
Hypoactivity of the vagal nervous system leads to hyperactivity of the sympathetic nervous system. Damages to health that result from an inequilibrium of the autonomic nervous system when the dysfunction affects the heart include the weakening of the myocardial contractile force and fatal cardiac arrhythmias such as ventricular fibrillation. The action of the test compounds was investigated in the model of chloroform-induced ventricular fibrillation in the mouse (see J. W. Lawson, Antiarrhythmic activity of some isoquinoline derivatives determined by a rapid screening procedure in the mouse; J. Pharmacol. Exp. Ther. 160 (1968) 22).
The test compound was dissolved in a mixture of dimethyl sulfoxide (DMSO) and 10 percent sodium hydrogencarbonate solution and administered intraperitoneally (i.p.). The dose was 3 mg/kg. 30 min later, the mouse was anesthetized with chloroform in a beaker. As soon as respiratory arrest had occurred under deep anesthesia (toxic stage of anesthesia), the thorax of the animal was opened using a pair of scissors and the heartbeat was visually inspected. It can be determined here at a glance whether the heart is beating, fibrillating, or has stopped. The respiratory arrest induced by chloroform leads, via an absolute anoxia (oxygen deficiency) in combination with a direct stimulating action of chloroform on the sympathetic nervous system, to a strong stimulation of the sympathetic nervous system, which in turn, and in combination with the energy deficiency caused by oxygen deficiency, leads in the heart to the fatal arrhythmia, ventricular fibrillation. This toxic chloroform anesthesia led to ventricular fibrillation in 100% of the untreated mice (control). The percentage proportion of the mice with ventricular fibrillation in the individual test groups (consisting of n animals) is indicated as the fibrillation ratio.
The following fibrillation ratios were observed.

Sequence of hSUR1/hKir6.2 (Q09428 whole entry): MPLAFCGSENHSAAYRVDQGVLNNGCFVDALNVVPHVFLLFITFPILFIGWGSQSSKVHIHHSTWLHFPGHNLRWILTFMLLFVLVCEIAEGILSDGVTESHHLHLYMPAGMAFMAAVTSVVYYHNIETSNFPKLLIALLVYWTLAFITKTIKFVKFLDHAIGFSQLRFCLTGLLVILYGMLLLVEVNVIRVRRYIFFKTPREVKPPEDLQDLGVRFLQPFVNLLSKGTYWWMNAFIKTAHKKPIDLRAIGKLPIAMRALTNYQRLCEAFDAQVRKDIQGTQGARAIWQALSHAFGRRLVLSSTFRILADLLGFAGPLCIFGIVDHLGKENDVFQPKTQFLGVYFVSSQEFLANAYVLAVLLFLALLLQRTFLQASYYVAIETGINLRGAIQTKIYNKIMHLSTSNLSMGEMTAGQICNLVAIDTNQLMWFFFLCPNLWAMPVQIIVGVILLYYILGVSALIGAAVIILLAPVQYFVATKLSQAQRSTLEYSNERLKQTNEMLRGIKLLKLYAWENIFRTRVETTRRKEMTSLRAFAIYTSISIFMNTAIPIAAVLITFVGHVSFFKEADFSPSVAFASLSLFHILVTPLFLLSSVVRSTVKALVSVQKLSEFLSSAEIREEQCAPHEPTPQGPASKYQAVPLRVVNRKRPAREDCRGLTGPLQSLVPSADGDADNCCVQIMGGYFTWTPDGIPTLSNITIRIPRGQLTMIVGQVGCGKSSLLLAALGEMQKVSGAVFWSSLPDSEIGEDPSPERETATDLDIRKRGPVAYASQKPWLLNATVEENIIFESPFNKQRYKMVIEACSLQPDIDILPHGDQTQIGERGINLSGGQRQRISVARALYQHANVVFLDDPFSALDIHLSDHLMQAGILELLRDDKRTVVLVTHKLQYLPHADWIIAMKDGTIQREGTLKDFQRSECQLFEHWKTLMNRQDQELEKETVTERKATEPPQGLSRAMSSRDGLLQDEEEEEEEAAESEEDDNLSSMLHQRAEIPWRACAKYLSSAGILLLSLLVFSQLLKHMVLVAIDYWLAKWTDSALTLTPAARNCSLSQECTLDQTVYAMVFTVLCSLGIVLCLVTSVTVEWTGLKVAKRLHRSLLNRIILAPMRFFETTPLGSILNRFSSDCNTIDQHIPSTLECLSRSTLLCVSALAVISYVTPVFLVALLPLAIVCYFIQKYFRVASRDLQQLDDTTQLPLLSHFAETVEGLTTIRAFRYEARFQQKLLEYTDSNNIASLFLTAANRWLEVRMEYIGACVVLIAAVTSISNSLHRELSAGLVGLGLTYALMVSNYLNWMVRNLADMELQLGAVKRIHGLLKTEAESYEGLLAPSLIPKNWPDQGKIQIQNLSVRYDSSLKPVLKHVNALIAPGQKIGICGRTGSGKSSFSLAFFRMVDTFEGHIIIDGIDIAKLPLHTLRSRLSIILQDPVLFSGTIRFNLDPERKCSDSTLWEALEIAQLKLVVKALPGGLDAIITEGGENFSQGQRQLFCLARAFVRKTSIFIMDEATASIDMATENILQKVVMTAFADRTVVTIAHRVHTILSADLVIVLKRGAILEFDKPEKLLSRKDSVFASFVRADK
Sequence of hSUR1/hKir6.2 (Q14654 whole entry): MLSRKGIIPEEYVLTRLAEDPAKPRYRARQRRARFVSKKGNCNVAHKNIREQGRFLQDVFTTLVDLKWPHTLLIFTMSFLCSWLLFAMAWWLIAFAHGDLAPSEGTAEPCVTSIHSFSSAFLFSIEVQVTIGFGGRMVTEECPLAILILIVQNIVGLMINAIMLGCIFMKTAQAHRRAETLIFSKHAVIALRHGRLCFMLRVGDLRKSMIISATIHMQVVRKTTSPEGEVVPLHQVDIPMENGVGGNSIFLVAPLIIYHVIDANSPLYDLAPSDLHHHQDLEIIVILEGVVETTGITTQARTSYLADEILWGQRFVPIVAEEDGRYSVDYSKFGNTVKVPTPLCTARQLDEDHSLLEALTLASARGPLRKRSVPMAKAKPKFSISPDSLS

SMILES	Relengthening of the APD90 shortened by hypoxia [1] [%]	Blockade hSUR1/hKiR6.2 [2] [%]	Fibrillation ratio (in %) [3] [%]	melting point [°C]
CNC(=S)NS(=O)(=O)c1cc(CCNC(=O)/C=C/c2cccs2)ccc1OC [Example 1, 1-[5-(2-(trans-3-(2-Thienyl)acryloylamino)ethyl)-2-methoxyphenylsulfonyl]-3-methyl-thiourea]	33	30.7	–	–
CNC(=O)NS(=O)(=O)c1cc(CCNC(=O)/C=C/c2cccs2)ccc1OC [Example 3, 1-[5-(2-(trans-3-(2-Thienyl)acryloylamino)ethyl)-2-methoxyphenylsulfonyl]-3-methyl-urea]	–	1.7	65	–
COc1ccc(CCNC(=O)/C=C/c2cccs2)cc1S(=O)(=O)NC(=S)NC(C)C [Example 5, 1-[5-(2-(trans-3-(2-Thienyl)acryloylamino)ethyl)-2-methoxyphenyisulfonyl]-3-isopropyl-thiourea]	–	–	–	96
CNC(=S)NS(=O)(=O)c1cc(CCNC(=O)/C=C/c2cccs2)ccc1OCCOC [Example 6, 1-[5-(2-(trans-3-(2-Thienyl)acryloylamino)ethyl)-2-(2-methoxyethoxy)phenylsulfonyl]-3-methyl-thiourea]	–	–	–	152
CNC(=O)NS(=O)(=O)c1cc(CCNC(=O)/C=C/c2cccs2)ccc1OCCOC [Example 7, 1-[5-(2-(trans-3-(2-Thienyl)acryloylamino)ethyl)-2-(2-methoxyethoxy)phenylsulfonyl]-3-methyl-urea]	39	8.1	80	–
COCCOc1ccc(CCNC(=O)/C=C/c2cccs2)cc1S(=O)(=O)NC(=S)NC(C)C [Example 8, 1-[5-(2-(trans-3-(2-Thienyl)acryloylamino)ethyl)-2-(2-methoxyethoxy)phenylsulfonyl]-3-isopropyl-thiourea]	–	–	–	101
CCOc1ccc(CCNC(=O)/C=C/c2cccs2)cc1S(=O)(=O)NC(=S)NC [Example 9, 1-[5-(2-(trans-3-(2-Thienyl)acryloylamino)ethyl)-2-ethoxyphenylsulfonyl]-3-methyl-thiourea]	–	–	–	74
CCOCCOc1ccc(CCNC(=O)/C=C/c2cccs2)cc1S(=O)(=O)NC(=S)NC [Example 10, 1-[5-(2-(trans-3-(2-Thienyl)acryloylamino)ethyl)-2-(2-ethoxyethoxy)phenylsulfonyl]-3-methyl-thiourea]	50	–	–	–
CCOCCOc1ccc(CCNC(=O)/C=C/c2cccs2)cc1S(=O)(=O)NC(=O)NC [Example 11, 1-[5-(2-(trans-3-(2-Thienyl)acryloylamino)ethyl)-2-(2-ethoxyethoxy)phenylsulfonyl]-3-methyl-urea]	–	–	–	65
CNC(=S)NS(=O)(=O)c1cc(CCNC(=O)/C=C/c2cccs2)ccc1OCC1CCCO1 (stereo not drawn) [Example 14, 1-[5-(2-(trans-3-(2-Thienyl)acryloylamino)ethyl)-2-(tetrahydrofuran-2-ylmethoxy)phenylsulfonyl]-3-methyl-thiourea]	–	–	–	78
CNC(=S)NS(=O)(=O)c1cc(CCNC(=O)/C=C/c2cccs2)ccc1OCC1CCCCO1 (stereo not drawn) [Example 15, 1-[5-(2-(trans-3-(2-Thienyl)acryloylamino)ethyl)-2-(tetrahydropyran-2-ylmethoxy)phenylsulfonyl]-3-methyl-thiourea]	–	–	–	80
CNC(=S)NS(=O)(=O)c1cc(CCNC(=O)/C=C/c2cccs2)ccc1OCCOC(F)(F)F [Example 16, 1-[5-(2-(trans-3-(2-Thienyl)acryloylamino)ethyl)-2-(2-(trifluoromethoxy)ethoxy)phenylsulfonyl]-3-methyl-thiourea]	–	–	–	161 to 163
CNC(=S)NS(=O)(=O)c1cc(CCNC(=O)/C=C/c2cccs2)ccc1-c1ccco1 [Example 17, 1-[5-(2-(trans-3-(2-Thienyl)acryloylamino)ethyl)-2-(2-furyl)phenylsulfonyl]-3-methyl-thiourea]	–	–	–	175 to 176
CNC(=S)NS(=O)(=O)c1cc(CCNC(=O)/C=C/c2ccccn2)ccc1OC [Example 18, 1-[5-(2-(trans-3-(2-Pyridyl)acryloylamino)ethyl)-2-methoxyphenylsulfonyl]-3-methyl-thiourea]	–	–	–	188
COCCOc1ccc(CCNC(=O)/C=C/c2ccccn2)cc1S(=O)(=O)NC(=S)NC(C)C [Example 20, 1-[5-(2-(trans-3-(2-Pyridyl)acryloylamino)ethyl)-2-(2-methoxyethoxy)phenylsulfonyl]-3-isopropyl-thiourea]	26	5.9	80	–
